From paper PMC9856062, “Nano-Zirconium Dioxide Catalyzed Multicomponent Synthesis of Bioactive Pyranopyrazoles That Target Cyclin Dependent Kinase 1 in Human Breast Cancer Cells” (Biomedicines, 2023)
“And” between values parts separate entries of the source, which are not always exact repeats. Equal values may be shown once. Read-outs that look alike come from different tables or passages of the source.

Assays:
MCF-7 cells = assay: MCF-7 cell viability assay (Alamar Blue); format: cell-based, human; conditions: for IC50: MCF-7 cells; for effect on viability of MCF-7 cells: 0, 0.01, 0.1, 10, and 100 µM
Description: We obtained MCF-7 cells from Procell Life Science and Technology. A humidified atmosphere of 5% CO2 was maintained at 37 °C for the culture of MCF-7 cells (2000) in MEM or Leibovitz’s L-15 medium enriched with 2% FBS [21, 22, 23, 24]. DMSO was used to prepare a stock solution of pyranopyrazoles, and the stock solution was then diluted with culture medium to achieve the desired concentration. […] Incubation with AlamarBlue assay reagent was performed for a further 4 h. According to the established protocol, the IC50 values of compounds were determined in the absence and presence of pyranopyrazoles.
Figure 4 Loss of MCF-7 cell viability produced by compounds 5b 5d, and 5f. MCF-7 cells were exposed to 5b (A), 5d (B), and 5f (C) for 72 h and the viability of cells was analyzed by Alamar Blue assays. The results are presented as mean ± S.E.M. of triplicate determinations.

SKBR3 = assay: Breast cancer cell proliferation, Alamar Blue, SKBR3; format: cell-based; conditions: Homo sapiens, SK-BR-3, 72 h; SKBR3 cells, 2% FBS medium, 3 days
BT-474 cells = assay: Breast cancer cell proliferation, Alamar Blue, BT-474; format: cell-based; conditions: Homo sapiens, 72 h, 2% FBS medium, 3 days
MCF-10A cells = assay: Cytotoxicity to normal breast cells, Alamar Blue, MCF-10A; format: cell-based; conditions: Homo sapiens, 72 h; MCF-10A normal breast cells, 2% FBS medium, 3 days
CDK1 [1] = target: T1, CDK1 (Homo sapiens, UniProt P06493); assay: CDK1 kinase assay (ADP-Glo / Kinase-Glo luminescence); format: biochemical; set-up: 1 mg of CDK1 antibodies were used to immunoprecipitate 1 mg of protein from the total cell lysate; endogenous in cells; host or cells: total cell lysate
T1 sequence (P06493 whole entry): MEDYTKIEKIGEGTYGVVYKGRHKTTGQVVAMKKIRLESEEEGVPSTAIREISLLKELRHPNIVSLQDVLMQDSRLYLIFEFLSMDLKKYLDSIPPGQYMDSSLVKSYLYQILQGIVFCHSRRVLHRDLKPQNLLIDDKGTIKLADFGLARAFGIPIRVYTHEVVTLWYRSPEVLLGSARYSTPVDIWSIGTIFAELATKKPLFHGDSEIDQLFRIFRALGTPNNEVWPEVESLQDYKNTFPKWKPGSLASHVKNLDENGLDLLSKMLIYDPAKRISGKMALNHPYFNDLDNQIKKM
T1 sequence (P14635 whole entry partner): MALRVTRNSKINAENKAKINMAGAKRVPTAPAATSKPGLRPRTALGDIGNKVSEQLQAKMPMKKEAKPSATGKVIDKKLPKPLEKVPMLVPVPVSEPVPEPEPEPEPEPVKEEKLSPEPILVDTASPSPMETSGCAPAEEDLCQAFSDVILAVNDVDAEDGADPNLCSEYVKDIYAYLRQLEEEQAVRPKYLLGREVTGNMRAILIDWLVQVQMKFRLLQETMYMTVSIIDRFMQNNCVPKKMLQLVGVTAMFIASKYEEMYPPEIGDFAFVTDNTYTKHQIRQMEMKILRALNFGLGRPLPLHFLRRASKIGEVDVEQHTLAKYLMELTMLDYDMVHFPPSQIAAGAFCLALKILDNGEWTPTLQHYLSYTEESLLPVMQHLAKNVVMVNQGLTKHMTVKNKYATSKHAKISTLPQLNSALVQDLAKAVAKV
Description: Promega’s Kinase-Glo luminescence assay was used for detection of CDK1 activity. IgG was used as a negative control, and 1 mg of CDK1 antibodies were used to immunoprecipitate 1 mg of protein from the total cell lysate. At […], the reaction mixture was incubated for three hours and subsequently, beads were washed three times with lysis buffer, following overnight incubation at […]. The reactant beads were added to […] kinase reaction buffer containing 0.2 mM ATP, 2 mM DTT, 0.1 mg/mL BSA, 20 mM MgCl2, and 40 mM Tris-HCl, and beads were resuspended for 30 min at room temperature with a CDK1/2 specific substrate (p53). A total of 10 µl of ADP-GLO reagent and […] of kinase detection reagent were added to the reaction for 40 min at room temperature and 5 min at room temperature, respectively. […]
Since the ADP-GloTM Kinase Assay uses multiple enzymes as components, it should not generate a high rate of interference or false responses when screening pyranopyrazoles anti-CDK1 activity. […] Based on the luminescence units for compounds 5b and 5f, Figure 8 illustrates the standard curves generated for inhibition of cdk1 activity by pyranopyrazoles at different concentrations. […]
Figure 8 In vitro inhibition of CDK1 by compounds 5b (A) and 5f (B). The inhibitory effect of pyranopyrazoles on CKD1 measured using ADP−Glo™ reagent. […]

MDA-MB-231 = assay: Breast cancer cell proliferation, Alamar Blue, MDA-MB-231; format: cell-based; conditions: Homo sapiens, 72 h; MDA-MB-231 cells, 2% FBS medium, 3 days
T47D = assay: Breast cancer cell proliferation, Alamar Blue, T47D; format: cell-based; conditions: Homo sapiens, 72 h; T47D cells, 2% FBS medium, 3 days
CDK1 [2] = target: T1, CDK1; set-up: method as in PMID 34156352; conditions: literature value; cited from earlier work

Structure (SMILES) | IC50 (MCF-7 cells; Homo sapiens, MCF7, 72 h) [µM] | melting point [°C] | IC50 (SKBR3) [µM] | IC50 (MCF-7 cells; 72 h) | IC50 (BT-474 cells) [µM] | IC50 (CDK1 [1]) [µM] | IC50 (MDA-MB-231) [µM] | IC50 (T47D) [µM] | effect on viability of MCF-7 cells (MCF-7 cells; 72 h) | IC50 (MCF-10A cells) [µM] | IC50 (CDK1 [2]) [µM]
Cc1n[nH]c2c1C(c1ccc(-c3cncnc3)cc1)C(C#N)=C(N)O2 (stereo not shown) [5a, 6-Amino-3-methyl-4-(4-(pyrimidin-5-yl)phenyl)-1,4-dihydropy-rano [2,3-c] Pyrazole-5-carbonitrile] | 55 | 196 to 198 | – | – | – | – | – | – | – | – | –
Cc1cc(-c2cccc(C3C(C#N)=C(N)Oc4[nH]nc(C)c43)c2)cnc1F (stereo not shown) [5b, 6-Amino-4-(3-(6-fluoro-5-methylpyridin-3-yl)phenyl)-3-methyl-1,4-dihydropyrano [2,3-c] Pyrazole-5-carbonitrile] | 17.8 | 214 to 215 | > 100 | 17.2 µM and 17 µM | 23.7 | 0.96 | 13.5 | 27.5 | dose–dependent decrease | 90.5 | –
Cc1n[nH]c2c1C(c1cccc(-c3ccncc3)c1)C(C#N)=C(N)O2 (stereo not shown) [5c, 6-Amino-3-methyl-4-(3-(pyridin-4-yl)phenyl)-1,4-dihydropyrano [2,3-c] Pyrazole-5-carbonitrile] | – | 245 to 247 | 69.4 | – | 21.3 | – | 15 | 33.7 | – | 88.2 | –
Cc1cc(-c2cccc(C3C(C#N)=C(N)Oc4[nH]nc(C)c43)c2)cnc1Cl (stereo not shown) [5d, 6-Amino-4-(3-(6-chloro-5-methylpyridin-3-yl)phenyl)-3-methyl-1,4-dihydropyrano [2,3-c] Pyrazole-5-carbonitrile] | 38.9 | 212 to 214 | – | – | – | – | – | – | dose–dependent decrease | – | –
O=C(c1cc(Cc2n[nH]c(=O)c3ccccc23)ccc1F)N1CCN(C(=O)C2CC2)CC1 [Olaparib, reference compound] | 3.28 | – | – | – | – | – | – | – | – | – | –
CC(C)CC(=O)Nc1[nH]nc2c1CN(C(=O)C1CCN(C)CC1)C2(C)C [PHA-793887] | – | – | – | – | – | – | – | – | – | – | 0.06

Now from value to compound, other results behind:

IC50 (MCF-7 cells; Homo sapiens, MCF7, 72 h) [µM] | melting point [°C] | IC50 (SKBR3) [µM] | IC50 (MCF-7 cells; 72 h) | IC50 (BT-474 cells) [µM] | IC50 (CDK1 [1]) [µM] | IC50 (MDA-MB-231) [µM] | IC50 (T47D) [µM] | Structure (SMILES) | effect on viability of MCF-7 cells (MCF-7 cells; 72 h) | IC50 (MCF-10A cells) [µM] | IC50 (CDK1 [2]) [µM]
> 100 | 232 to 234 | > 100 | – | 50.2 | – | 22.1 | > 100 | Cc1n[nH]c2c1C(c1ccc(-c3ccncc3)cc1)C(C#N)=C(N)O2 (stereo not shown) [5e, 6-Amino-3-methyl-4-(4-(pyridin-4-yl)phenyl)-1,4-dihydropyra-no [2,3-c] Pyrazole-5-carbonitrile] | – | > 100 | –
23.8 | 268 to 269 | > 100 | – | 15.2 | 7.16 | 19.1 | 45.8 | Cc1cc(-c2ccc(C3C(C#N)=C(N)Oc4[nH]nc(C)c43)cc2)cnc1F (stereo not shown) [5f, 6-Amino-4-(4-(6-fluoro-5-methylpyridin-3-yl)phenyl)-3-methyl-1,4-dihydropyrano [2,3-c] Pyrazole-5-carbonitrile] | dose–dependent decrease | > 100 | –
– | 242 to 243 | – | – | – | – | – | – | Cc1nn(-c2ccc(Cl)cc2)c2c1C(c1cccc(-c3cncnc3)c1)C(C#N)=C(N)O2 (stereo not shown) [5g, 6-Amino-1-(4-chlorophenyl)-3-methyl-4-(3-(pyrimidin-5-yl)phenyl)-1,4-dihydropyrano [2,3-c] Pyrazole-5-carbonitrile] | – | – | –
